According to ChEMBL document CHEMBL1153245, “A profile of the in vitro anti-tumor activity of imidazolium-based ionic liquids” (2010):

What was measured:
Type in all cases: functional
[1] = tested on: NCI-H23; experiment: Anticancer activity against human NCI-H23 cells assessed cell growth at 10 uM after 48 hrs by sulforhodamine B assay relative to control
[2] = tested on: HCT-116; experiment: Anticancer activity against human HCT116 cells assessed cell growth at 10 uM after 48 hrs by sulforhodamine B assay relative to control
[3] = tested on: HCC 2998; experiment: Anticancer activity against human HCC2998 cells assessed cell growth at 10 uM after 48 hrs by sulforhodamine B assay relative to control
[4] = tested on: IGROV-1; experiment: Anticancer activity against human IGROV1 cells assessed cell growth at 10 uM after 48 hrs by sulforhodamine B assay relative to control
[5] = tested on: SK-MEL-2; experiment: Anticancer activity against human SK-MEL-2 cells assessed cell growth at 10 uM after 48 hrs by sulforhodamine B assay relative to control
[6] = tested on: HT-29; experiment: Anticancer activity against human HT-29 cells assessed cell growth at 10 uM after 48 hrs by sulforhodamine B assay relative to control
[7] = tested on: SNB-75; experiment: Anticancer activity against human SNB75 cells assessed cell growth at 10 uM after 48 hrs by sulforhodamine B assay relative to control
[8] = tested on: OVCAR-4; experiment: Anticancer activity against human OVCAR4 cells assessed cell growth at 10 uM after 48 hrs by sulforhodamine B assay relative to control
[9] = tested on: BT-549; experiment: Anticancer activity against human BT549 cells assessed cell growth at 10 uM after 48 hrs by sulforhodamine B assay relative to control
[10] = tested on: NCI-H522; experiment: Anticancer activity against human NCI-H522 cells assessed cell growth at 10 uM after 48 hrs by sulforhodamine B assay relative to control
[11] = tested on: U-251; experiment: Anticancer activity against human U251 cells assessed cell growth at 10 uM after 48 hrs by sulforhodamine B assay relative to control
[12] = tested on: MDA-MB-468; experiment: Anticancer activity against human MDA-MB-468 cells assessed cell growth at 10 uM after 48 hrs by sulforhodamine B assay relative to control
[13] = tested on: SK-MEL-5; experiment: Anticancer activity against human SK-MEL-5 cells assessed cell growth at 10 uM after 48 hrs by sulforhodamine B assay relative to control
[14] = tested on: M14; experiment: Anticancer activity against human M14 cells assessed cell growth at 10 uM after 48 hrs by sulforhodamine B assay relative to control
[15] = tested on: PC-3; experiment: Anticancer activity against human PC3 cells assessed cell growth at 10 uM after 48 hrs by sulforhodamine B assay relative to control
[16] = tested on: TK-10; experiment: Anticancer activity against human TK10 cells assessed cell growth at 10 uM after 48 hrs by sulforhodamine B assay relative to control
[17] = tested on: NCI-H460; experiment: Anticancer activity against human NCI-H460 cells assessed cell growth at 10 uM after 48 hrs by sulforhodamine B assay relative to control
[18] = tested on: OVCAR-3; experiment: Anticancer activity against human OVCAR-3 cells assessed cell growth at 10 uM after 48 hrs by sulforhodamine B assay relative to control
[19] = tested on: SNB-19; experiment: Anticancer activity against human SNB19 cells assessed cell growth at 10 uM after 48 hrs by sulforhodamine B assay relative to control
[20] = tested on: A498; experiment: Anticancer activity against human A498 cells assessed cell growth at 10 uM after 48 hrs by sulforhodamine B assay relative to control
[21] = tested on: SK-MEL-28; experiment: Anticancer activity against human SK-MEL-28 cells assessed cell growth at 10 uM after 48 hrs by sulforhodamine B assay relative to control
[22] = tested on: HCT-15; experiment: Anticancer activity against human HCT15 cells assessed cell growth at 10 uM after 48 hrs by sulforhodamine B assay relative to control
[23] = tested on: UO-31; experiment: Anticancer activity against human UO31 cells assessed cell growth at 10 uM after 48 hrs by sulforhodamine B assay relative to control
[24] = tested on: KM12; experiment: Anticancer activity against human KM12 cells assessed cell growth at 10 uM after 48 hrs by sulforhodamine B assay relative to control
[25] = tested on: SK-OV-3; experiment: Anticancer activity against human SKOV3 cells assessed cell growth at 10 uM after 48 hrs by sulforhodamine B assay relative to control
[26] = tested on: NCI/ADR-RES; experiment: Anticancer activity against human NCI/ADR-RES cells assessed cell growth at 10 uM after 48 hrs by sulforhodamine B assay relative to control
[27] = tested on: COLO 205; experiment: Anticancer activity against human COLO205 cells assessed cell growth at 10 uM after 48 hrs by sulforhodamine B assay relative to control
[28] = tested on: SF-295; experiment: Anticancer activity against human SF295 cells assessed cell growth at 10 uM after 48 hrs by sulforhodamine B assay relative to control
[29] = tested on: HOP-62; experiment: Anticancer activity against human HOP62 cells assessed cell growth at 10 uM after 48 hrs by sulforhodamine B assay relative to control
[30] = Anticancer activity against human RPMI8266 cells assessed cell growth at 10 uM after 48 hrs by sulforhodamine B assay relative to control
[31] = tested on: UACC-62; experiment: Anticancer activity against human UACC62 cells assessed cell growth at 10 uM after 48 hrs by sulforhodamine B assay relative to control
[32] = tested on: OVCAR-8; experiment: Anticancer activity against human OVCAR8 cells assessed cell growth at 10 uM after 48 hrs by sulforhodamine B assay relative to control
[33] = tested on: OVCAR-5; experiment: Anticancer activity against human OVCAR5 cells assessed cell growth at 10 uM after 48 hrs by sulforhodamine B assay relative to control
[34] = tested on: HOP-92; experiment: Anticancer activity against human HOP92 cells assessed cell growth at 10 uM after 48 hrs by sulforhodamine B assay relative to control
[35] = tested on: MDA-MB-231; experiment: Anticancer activity against human MDA-MB-231 cells assessed cell growth at 10 uM after 48 hrs by sulforhodamine B assay relative to control
[36] = tested on: A549; experiment: Anticancer activity against human A549 cells assessed cell growth at 10 uM after 48 hrs by sulforhodamine B assay relative to control
[37] = tested on: LOX IMVI; experiment: Anticancer activity against human LOXIMVI cells assessed cell growth at 10 uM after 48 hrs by sulforhodamine B assay relative to control
[38] = tested on: UACC-257; experiment: Anticancer activity against human UACC257 cells assessed cell growth at 10 uM after 48 hrs by sulforhodamine B assay relative to control
[39] = tested on: NCI-H322M; experiment: Anticancer activity against human NCI-H322M cells assessed cell growth at 10 uM after 48 hrs by sulforhodamine B assay relative to control
[40] = tested on: CAKI-1; experiment: Anticancer activity against human Caki1 cells assessed cell growth at 10 uM after 48 hrs by sulforhodamine B assay relative to control
[41] = tested on: SF-539; experiment: Anticancer activity against human SF539 cells assessed cell growth at 10 uM after 48 hrs by sulforhodamine B assay relative to control
[42] = tested on: SN12C; experiment: Anticancer activity against human SN12C cells assessed cell growth at 10 uM after 48 hrs by sulforhodamine B assay relative to control
[43] = tested on: T47D; experiment: Anticancer activity against human T47D cells assessed cell growth at 10 uM after 48 hrs by sulforhodamine B assay relative to control

## CCCCCC[n+]1ccn(C)c1.O=S(=O)([N-]S(=O)(=O)C(F)(F)F)C(F)(F)F
[1]
  Activity: 89.09%
[2]
  Activity: 80.77%
[3]
  Activity: 90.7%
[4]
  Activity: 85.47%
[5]
  Activity: 102.62%
[6]
  Activity: 88.19%
[7]
  Activity: 94.84%
[8]
  Activity: 82.57%
[9]
  Activity: 119.52%
[10]
  Activity: 81.74%
[11]
  Activity: 96.82%
[12]
  Activity: 80.22%
[13]
  Activity: 78.78%
[14]
  Activity: 100.39%
[15]
  Activity: 105.34%
[16]
  Activity: 124.14%
[17]
  Activity: 90.77%
[18]
  Activity: 99.74%
[19]
  Activity: 95.37%
[20]
  Activity: 84.14%
[21]
  Activity: 135.26%
[22]
  Activity: 105.5%
[23]
  Activity: 84.29%
[24]
  Activity: 100.77%
[25]
  Activity: 95.29%
[26]
  Activity: 99.76%
[27]
  Activity: 100.66%
[28]
  Activity: 101.37%
[29]
  Activity: 89.75%
[30]
  Activity: 125.38%
[31]
  Activity: 92.58%
[32]
  Activity: 84.83%
[33]
  Activity: 105.87%
[34]
  Activity: 114.14%
[35]
  Activity: 86.26%
[36]
  Activity: 78.86%
[37]
  Activity: 92.45%
[38]
  Activity: 87.47%
[39]
  Activity: 113.78%
[40]
  Activity: 66.14%
[41]
  Activity: 75.4%
[42]
  Activity: 90.25%

## CCCCCCCCCCCC[n+]1ccn(C)c1.[Cl-]
[1]
  Activity: 28.79%
[2]
  Activity: 17.62%
[3]
  Activity: 31.07%
[5]
  Activity: 13.06%
[6]
  Activity: 12.35%
[7]
  Activity: -10.6%
[8]
  Activity: 22.69%
[10]
  Activity: -19.92%
[11]
  Activity: 21.74%
[12]
  Activity: -42.1%
[13]
  Activity: -33.13%
[14]
  Activity: 8.94%
[15]
  Activity: 75.39%
[16]
  Activity: -1.53%
[17]
  Activity: 23.64%
[43]
  Activity: 24.65%
[18]
  Activity: 45.92%
[19]
  Activity: 45.54%
[20]
  Activity: 12.45%
[21]
  Activity: 34.86%
[22]
  Activity: 82.04%
[23]
  Activity: 65.71%
[24]
  Activity: 14.03%
[25]
  Activity: 44.54%
[26]
  Activity: 82.17%
[27]
  Activity: 8.8%
[28]
  Activity: 9.99%
[29]
  Activity: 38.17%
[30]
  Activity: 116.34%
[31]
  Activity: 31.07%
[32]
  Activity: 11.53%
[33]
  Activity: 45.62%
[34]
  Activity: 51.88%
[35]
  Activity: 41.54%
[36]
  Activity: 32.62%
[37]
  Activity: 23.94%
[38]
  Activity: -12.38%
[39]
  Activity: 57.06%
[40]
  Activity: 28.77%
[41]
  Activity: 30.45%
[42]
  Activity: 19.36%
